Measurements from ChEMBL document CHEMBL1155914 (Bioorg Med Chem, 2008).
pIC50, pKi: −log10 of the molar value.

Key:
Acetylcholinesterase [1] = target: T1, Acetylcholinesterase (Electrophorus electricus, UniProt O42275)
Description: Inhibition of Electrophorus electricus AChE by spectrophotometry

SH-SY5Y [2] = experiment: cells; conditions: Homo sapiens, read-out: INH
Description: Inhibition of potassium chloride-induced cytosolic calcium levels in human SH-SY5Y cells at 0.3 uM by fluorescence method relative to control

Acetylcholinesterase [3] = target: T1, Acetylcholinesterase; remark: listed apart in the source
Description: Inhibition of Electrophorus electricus AChE by Ellman's method

Cholinesterase = Cholinesterase (Homo sapiens, UniProt P06276)
Description: Inhibition of human serum BuChE by Ellman's method

Acetylcholinesterase [4] = target: Acetylcholinesterase (Homo sapiens, UniProt P22303)
Acetylcholinesterase (Homo sapiens, UniProt P22303), sequence (P22303 whole entry): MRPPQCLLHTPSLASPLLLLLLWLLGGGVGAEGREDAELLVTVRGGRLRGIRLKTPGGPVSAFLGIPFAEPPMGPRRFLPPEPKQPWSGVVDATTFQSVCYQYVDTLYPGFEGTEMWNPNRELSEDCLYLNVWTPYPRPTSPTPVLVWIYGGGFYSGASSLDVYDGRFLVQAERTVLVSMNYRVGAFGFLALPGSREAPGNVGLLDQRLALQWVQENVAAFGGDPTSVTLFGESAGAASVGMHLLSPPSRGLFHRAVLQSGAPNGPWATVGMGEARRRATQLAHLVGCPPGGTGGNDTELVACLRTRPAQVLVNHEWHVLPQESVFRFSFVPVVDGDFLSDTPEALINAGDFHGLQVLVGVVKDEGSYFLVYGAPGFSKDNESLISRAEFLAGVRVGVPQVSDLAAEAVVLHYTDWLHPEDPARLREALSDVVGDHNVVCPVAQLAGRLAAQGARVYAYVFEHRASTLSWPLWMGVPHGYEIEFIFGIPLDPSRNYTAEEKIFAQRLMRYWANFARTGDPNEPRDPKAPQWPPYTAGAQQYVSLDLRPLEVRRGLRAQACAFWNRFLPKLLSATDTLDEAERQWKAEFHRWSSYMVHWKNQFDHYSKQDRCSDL
Description: Inhibition of human erythrocyte AChE by Ellman's method

SH-SY5Y [5] = experiment: Antioxidant activity in human SH-SY5Y cells assessed as decrease in H2O2-induced reactive oxygen species generation at 0.3 uM by fluorescence method; type: functional; parameters: scale not given: the % may be the effect or the level left

Cholinesterase, sequence (P06276 whole entry): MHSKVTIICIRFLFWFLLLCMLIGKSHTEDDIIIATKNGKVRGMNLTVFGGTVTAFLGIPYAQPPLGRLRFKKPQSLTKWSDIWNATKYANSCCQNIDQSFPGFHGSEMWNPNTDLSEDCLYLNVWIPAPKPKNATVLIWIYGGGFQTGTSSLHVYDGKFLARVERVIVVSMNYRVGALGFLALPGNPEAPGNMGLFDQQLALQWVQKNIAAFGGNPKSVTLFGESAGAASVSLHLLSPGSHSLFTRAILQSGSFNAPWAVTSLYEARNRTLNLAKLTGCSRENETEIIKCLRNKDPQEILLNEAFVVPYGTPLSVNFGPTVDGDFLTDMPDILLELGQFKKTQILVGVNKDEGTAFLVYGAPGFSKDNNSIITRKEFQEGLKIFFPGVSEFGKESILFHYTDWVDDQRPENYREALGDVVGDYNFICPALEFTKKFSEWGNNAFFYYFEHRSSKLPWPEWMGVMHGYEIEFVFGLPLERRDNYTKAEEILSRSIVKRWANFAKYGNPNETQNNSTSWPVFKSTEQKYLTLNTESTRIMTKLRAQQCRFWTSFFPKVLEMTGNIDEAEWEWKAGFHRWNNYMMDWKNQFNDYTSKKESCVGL
T1 sequence (O42275 whole entry): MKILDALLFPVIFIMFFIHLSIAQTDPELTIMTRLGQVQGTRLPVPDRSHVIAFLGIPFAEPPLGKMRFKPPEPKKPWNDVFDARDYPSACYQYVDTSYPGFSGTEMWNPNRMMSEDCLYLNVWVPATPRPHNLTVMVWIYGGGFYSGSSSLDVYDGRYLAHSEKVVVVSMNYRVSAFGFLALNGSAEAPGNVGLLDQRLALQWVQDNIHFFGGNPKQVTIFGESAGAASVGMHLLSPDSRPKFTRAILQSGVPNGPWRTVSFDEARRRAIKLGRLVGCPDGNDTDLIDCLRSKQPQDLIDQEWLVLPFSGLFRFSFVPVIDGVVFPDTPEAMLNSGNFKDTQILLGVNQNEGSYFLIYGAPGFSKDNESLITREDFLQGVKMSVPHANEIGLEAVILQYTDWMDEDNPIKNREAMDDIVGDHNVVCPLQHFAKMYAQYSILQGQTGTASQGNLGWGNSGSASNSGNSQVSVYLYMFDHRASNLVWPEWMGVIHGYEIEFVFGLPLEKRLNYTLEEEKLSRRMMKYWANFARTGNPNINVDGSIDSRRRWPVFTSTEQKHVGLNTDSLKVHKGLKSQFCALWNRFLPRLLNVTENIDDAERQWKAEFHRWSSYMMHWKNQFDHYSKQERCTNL

SMILES: CC1(C)CC(=O)C2=C(C1)Nc1nc3c(c(N)c1C2c1ccncc1)CCCC3 (centres undefined)
- pIC50 (Acetylcholinesterase [1]): 6.22
- inhibition at 0.3 µM (SH-SY5Y [2]): 45.1%
- pKi (Acetylcholinesterase [3]): 6.80
- pIC50 (Cholinesterase): < 4.00
- pIC50 (Acetylcholinesterase [4]): 5.55
- Activity (SH-SY5Y [5]): 82.9%

SMILES: COc1ccc(C2C3=C(CC(C)(C)CC3=O)Oc3nc4c(c(N)c32)CCCC4)cc1 (centres undefined)
- pIC50 (Acetylcholinesterase [1]): 5.39

SMILES: CC1(C)CC(=O)C2=C(C1)Oc1nc3c(c(N)c1C2c1ccc(F)cc1)CCCC3 (centres undefined)
- pIC50 (Acetylcholinesterase [1]): 4.15

SMILES: COc1ccc(C2C3=C(CC(C)(C)CC3=O)Nc3nc4c(c(N)c32)CCCC4)cc1 (centres undefined)
- pIC50 (Acetylcholinesterase [1]): 6.66
- inhibition at 0.3 µM (SH-SY5Y [2]): 31%
- pKi (Acetylcholinesterase [3]): 7.38
- pIC50 (Cholinesterase): < 4.00
- pIC50 (Acetylcholinesterase [4]): 6.43
- Activity (SH-SY5Y [5]): 87.8%

SMILES: Cc1ccc(C2C3=C(CC(C)(C)CC3=O)Nc3nc4c(c(N)c32)CCCC4)cc1 (centres undefined)
- pIC50 (Acetylcholinesterase [1]): 6.64
- inhibition at 0.3 µM (SH-SY5Y [2]): 30.9%
- pKi (Acetylcholinesterase [3]): 7.41
- pIC50 (Cholinesterase): < 4.00
- pIC50 (Acetylcholinesterase [4]): 6.17
- Activity (SH-SY5Y [5]): 79.9%

SMILES: CC[N+](C)(CC)CCC[n+]1c(-c2ccccc2)c2cc(N)ccc2c2ccc(N)cc21 [PROPIDIUM]
- pKi (Acetylcholinesterase [3]): 5.17

SMILES: CCOC(=O)c1c(C)nc2nc3c(c(N)c2c1-c1ccccc1)CCCC3
- pIC50 (Acetylcholinesterase [1]): 6.09

SMILES: Cc1ccc(C2C3=C(CC(C)(C)CC3=O)Oc3nc4c(c(N)c32)CCCC4)cc1 (centres undefined)
- pIC50 (Acetylcholinesterase [1]): 4.28

SMILES: CCOC(=O)C1=C(C)Oc2nc3c(c(N)c2C1c1ccncc1)CCCC3 (centres undefined)
- pIC50 (Acetylcholinesterase [1]): 5.52

SMILES: CCOC(=O)c1c(C)nc2nc3c(c(N)c2c1-c1ccncc1)CCCC3
- pIC50 (Acetylcholinesterase [1]): 5.85

SMILES: CC1(C)CC(=O)C2=C(C1)Nc1nc3c(c(N)c1C2c1ccc(F)cc1)CCCC3 (centres undefined)
- pIC50 (Acetylcholinesterase [1]): 6.27
- inhibition at 0.3 µM (SH-SY5Y [2]): 32.9%
- pKi (Acetylcholinesterase [3]): 6.97
- pIC50 (Cholinesterase): < 4.00
- pIC50 (Acetylcholinesterase [4]): 5.80
- Activity (SH-SY5Y [5]): 95.7%

SMILES: CCOC(=O)C1=C(C)Oc2nc3c(c(N)c2C1c1ccc(OC)cc1)CCCC3 (centres undefined)
- pIC50 (Acetylcholinesterase [1]): 6.06

SMILES: CC1(C)CC(=O)C2=C(C1)Nc1nc3c(c(N)c1C2c1ccccc1)CCCC3 (centres undefined)
- pIC50 (Acetylcholinesterase [1]): 6.49
- inhibition at 0.3 µM (SH-SY5Y [2]): 24.6%
- pKi (Acetylcholinesterase [3]): 7.21
- pIC50 (Cholinesterase): < 4.00
- pIC50 (Acetylcholinesterase [4]): 6.15
- Activity (SH-SY5Y [5]): 87.9%

SMILES: CC1(C)CC(=O)C2=C(C1)Oc1nc3c(c(N)c1C2c1ccccc1)CCCC3 (centres undefined)
- pIC50 (Acetylcholinesterase [1]): 4.31
